The solubility is how much of the substance goes into solution per volume.

Each structure is given as a SMILES string. Values after ≈ are worked out from the molar mass of the structure shown. Structures can show the parent of a compound that is named as a salt. Where two headings read alike, the source gives them in different places. Some results are limits rather than exact numbers.

Common to all, as to format: physicochemical
Series [1] in a line: Solvent solubility screen for Compound 1. Conditions: thermodynamic from solid, crystalline Compound 1 (Form 1), read-out: Approximate Solubility. The protocol:
Ca. 10 mg of crystalline Compound 1 was placed in 32 vials and 5 volume aliquots of the appropriate solvent systems were added to the appropriate vial. Between each addition, the mixture was checked for dissolution and if no dissolution was apparent, the mixture was heated to ca. 40° C. and checked again. This procedure was continued until dissolution was observed or until 100 volumes of solvent had been added. After the addition of 100 volumes, a further 100 volumes were added to samples which had not dissolved to give a total of 200 volumes. If 200 volumes were added without dissolution, the solubility was calculated to be below this point (<5 mg/mL).

A short description of series [2]: Gravimetric vapor sorption (GVS). The settings on record: for hygroscopic nature / weight uptake: GVS; for Post-GVS analysis by XRPD (form change): after GVS sorption/desorption cycle. The protocol:
Approximately 10 mg of sample was placed into a mesh vapour sorption balance pan and loaded into an IGASorp Moisture Sorption Analyser balance by Hiden Analytical. The sample was subjected to a ramping profile from 40-90% relative humidity (RH) at 10% increments, maintaining the sample at each step until a stable weight had been achieved (98% step completion). After completion of the sorption cycle, the sample was dried using the same procedure to 0% RH, and finally taken back to the starting point of 40% RH. The weight change during the sorption/desorption cycles were plotted, allowing for the hygroscopic nature of the sample to be determined.

The nature of series [3]: 7-day stability testing. Here is the method:
Form 2 of Compound 2 was scaled up in two solvents. Material underwent 7-day stability testing and/or aqueous solubility assessment. The 7-day stability testing was conducted as follows. Material was exposed to environments of 40° C./75% RH, ambient light and 80° C. for 7 days and the resulting solids analysed by XRPD to determine if any changes had occurred, and by HPLC to determine purity. The aqueous solubility assessment was conducted as follows. A slurry was created in deionised water (5.1 mg of Form 2 and 300 μL of water) and shaken for ca. 24 hours at ambient temperature (ca. 22° C.). The initial pH and final pH were measured. The resulting mixture was then isolated by centrifuge filtration, and the solution obtained analysed by HPLC to calculate the concentration of material dissolved. Remaining solid was analysed by XRPD to determine if any changes had occurred on slurrying.

A short description of series [4]: Compound 6 polymorph screen. The settings on record: among the three Compound 6 polymorphs. An excerpt:
In a Compound 6 polymorph screen, two additional Compound 6 crystalline forms were identified. Compound 6, Form 2, was isolated from a 95/5 acetone/water slurry and Compound 6, Form 3, was isolated from in a 80/20 dioxane/water mixture.

[5] abbreviates: ambient light / ambient conditions for 7 days.

As to `O=C(OC(C(F)(F)F)C(F)(F)F)N1CCN(Cc2ccc(C(F)(F)F)cc2N2CCCC2)CC1` [Compound 1, 1,1,1,3,3,3-hexafluoropropan-2-yl 4-(2-(pyrrolidin-1-yl)-4-(trifluoromethyl)benzyl)piperazine-1-carboxylate], the solubility was below 5 mg/mL in series [1] (aqueous with cosolvent or surfactant or cyclodextrin, 2-Propanol:water (50%)); above 202 mg/mL in series [1] (aqueous with cosolvent or surfactant or cyclodextrin, Acetone:water (50%), precipitated after ca. 30 minutes); below 5 mg/mL in series [1] (aqueous with cosolvent or surfactant or cyclodextrin, Methanol:water (50%)); above 206 mg/mL in series [1] (organic solvent or mixture, 1,4-Dioxane); 39 mg/mL (≈ 76.9 mM) in series [1] (organic solvent or mixture, 1-Butanol); 103 mg/mL (≈ 203 mM) in series [1] (organic solvent or mixture, 2-Ethoxyethanol). Moreover, the solubility in series [1] (organic solvent or mixture, 2-Methyl tetrahydrofuran) was above 200 mg/mL; in series [1] (organic solvent or mixture, 2-Propanol, precipitated after ca. 2 days) it was 69 mg/mL (≈ 136 mM); in series [1] (organic solvent or mixture, Acetone), above 202 mg/mL; in series [1] (organic solvent or mixture, Acetonitrile), above 196 mg/mL; in series [1] (organic solvent or mixture, Anisole) it was above 200 mg/mL; in series [1] (organic solvent or mixture, Benzonitrile), above 214 mg/mL. The solubility in series [1] (organic solvent or mixture, Chlorobenzene) was 69 mg/mL (≈ 136 mM); in series [1] (organic solvent or mixture, Dichloromethane) it was above 198 mg/mL; in series [1] (organic solvent or mixture, Diisopropyl Ether), above 208 mg/mL; in series [1] (organic solvent or mixture, Dimethylacetamide) it was above 204 mg/mL; in series [1] (organic solvent or mixture, Dimethylformamide), above 204 mg/mL; in series [1] (organic solvent or mixture, Dimethylsulfoxide) it was 50 mg/mL (≈ 98.5 mM). For the same compound, the solubility in series [1] (organic solvent or mixture, Ethanol) is 67 mg/mL (≈ 132 mM); in series [1] (organic solvent or mixture, Ethyl acetate) it was above 198 mg/mL; in series [1] (organic solvent or mixture, Heptane), 49 mg/mL (≈ 96.6 mM); in series [1] (organic solvent or mixture, Hexane), 49 mg/mL (≈ 96.6 mM); in series [1] (organic solvent or mixture, Isopropyl acetate) it was above 198 mg/mL; in series [1] (organic solvent or mixture, Methanol) it was 72 mg/mL (≈ 142 mM). For the same compound, the solubility was above 196 mg/mL in series [1] (organic solvent or mixture, Methyl isobutyl ketone); above 202 mg/mL in series [1] (organic solvent or mixture, Methylethyl ketone); above 198 mg/mL in series [1] (organic solvent or mixture, N-Methyl-2-pyrrolidone); above 198 mg/mL in series [1] (organic solvent or mixture, Tetrahydrofuran); above 202 mg/mL in series [1] (organic solvent or mixture, Toluene); 69 mg/mL (≈ 136 mM) in series [1] (organic solvent or mixture, tert-Amyl alcohol). In addition, the solubility is above 196 mg/mL in series [1] (organic solvent or mixture, tert-Butylmethyl ether) and below 5 mg/mL in series [1] (Water).

As to `Cl.Cl.O=C(OC(C(F)(F)F)C(F)(F)F)N1CCN(Cc2ccc(C(F)(F)F)cc2N2CCCC2)CC1` [Compound 3, 1,1,1,3,3,3-hexafluoropropan-2-yl 4-(2-(pyrrolidin-1-yl)-4-(trifluoromethyl)benzyl)piperazine-1-carboxylate bis-HCl salt], in series [2], the hygroscopic nature entry was “slightly hygroscopic” and the “Post-GVS analysis by XRPD (form change)” value is reported as “remain unchanged”. The compound further had a weight uptake in series [2] (at 90% RH) of 1.4%.

Regarding `CS(=O)(=O)O.O=C(OC(C(F)(F)F)C(F)(F)F)N1CCN(Cc2ccc(C(F)(F)F)cc2N2CCCC2)CC1` [Compound 5, 1,1,1,3,3,3-hexafluoropropan-2-yl 4-(2-(pyrrolidin-1-yl)-4-(trifluoromethyl)benzyl)piperazine-1-carboxylate mesylate salt], the hygroscopic nature result in series [2] is given as “moderately hygroscopic”. Moreover, the weight uptake came to 3.5% in series [2] (at 90% RH) and 2.8% in series [2] (up to 70% humidity). Also, the “Post-GVS analysis by XRPD (form change)” value in series [2] is “maintained its form and crystallinity”. In addition, the “HPLC purity after stability testing” value in series [3] (40° C./75% RH for 7 days) is listed as 99.98%; in series [3] (80° C. for 7 days), 99.97%; in series [3] (setting [5]), 99.95%.

As for `O=C(OC(C(F)(F)F)C(F)(F)F)N1CCN(Cc2ccc(C(F)(F)F)cc2N2CCCC2)CC1` [Compound 6, 1,1,1,3,3,3-hexafluoropropan-2-yl 4-(2-(pyrrolidin-1-yl)-4-(trifluoromethyl)benzyl)piperazine-1-carboxylate fumarate salt], the “HPLC purity after stability testing” value in series [3] (40° C./75% RH for 7 days), in series [3] (80° C. for 7 days) and in series [3] (setting [5]) was 99.9% in each case. Moreover, the “relative thermodynamic stability of polymorphs” value in series [4] was “thermodynamically most stable form”.
